The values below come from ChEMBL document CHEMBL1144632, “The rational design of inhibitors of nitric oxide formation by inducible nitric oxide synthase” (Bioorg Med Chem Lett, 2007).

The structures appear in SMILES notation. Calls of active or inactive are those of the source. The calls are words filed in the database; no cut-off is given here. Bounds are passed on as bounds.

Experiment [1] has as its target Nitric oxide synthase, inducible (Homo sapiens, UniProt P35228). As to the kind of experiment: Inhibition of iNOS in human A172 cells after 18 to 24 hrs. The experiment is classed as cell-based, A 172.
The target of experiment [2] is Nitric oxide synthase 1 (Homo sapiens) (UniProt P29475). As to the kind of experiment: Inhibition of bNOS.
Chain of Nitric oxide synthase 1 (Homo sapiens) (P29475 whole entry): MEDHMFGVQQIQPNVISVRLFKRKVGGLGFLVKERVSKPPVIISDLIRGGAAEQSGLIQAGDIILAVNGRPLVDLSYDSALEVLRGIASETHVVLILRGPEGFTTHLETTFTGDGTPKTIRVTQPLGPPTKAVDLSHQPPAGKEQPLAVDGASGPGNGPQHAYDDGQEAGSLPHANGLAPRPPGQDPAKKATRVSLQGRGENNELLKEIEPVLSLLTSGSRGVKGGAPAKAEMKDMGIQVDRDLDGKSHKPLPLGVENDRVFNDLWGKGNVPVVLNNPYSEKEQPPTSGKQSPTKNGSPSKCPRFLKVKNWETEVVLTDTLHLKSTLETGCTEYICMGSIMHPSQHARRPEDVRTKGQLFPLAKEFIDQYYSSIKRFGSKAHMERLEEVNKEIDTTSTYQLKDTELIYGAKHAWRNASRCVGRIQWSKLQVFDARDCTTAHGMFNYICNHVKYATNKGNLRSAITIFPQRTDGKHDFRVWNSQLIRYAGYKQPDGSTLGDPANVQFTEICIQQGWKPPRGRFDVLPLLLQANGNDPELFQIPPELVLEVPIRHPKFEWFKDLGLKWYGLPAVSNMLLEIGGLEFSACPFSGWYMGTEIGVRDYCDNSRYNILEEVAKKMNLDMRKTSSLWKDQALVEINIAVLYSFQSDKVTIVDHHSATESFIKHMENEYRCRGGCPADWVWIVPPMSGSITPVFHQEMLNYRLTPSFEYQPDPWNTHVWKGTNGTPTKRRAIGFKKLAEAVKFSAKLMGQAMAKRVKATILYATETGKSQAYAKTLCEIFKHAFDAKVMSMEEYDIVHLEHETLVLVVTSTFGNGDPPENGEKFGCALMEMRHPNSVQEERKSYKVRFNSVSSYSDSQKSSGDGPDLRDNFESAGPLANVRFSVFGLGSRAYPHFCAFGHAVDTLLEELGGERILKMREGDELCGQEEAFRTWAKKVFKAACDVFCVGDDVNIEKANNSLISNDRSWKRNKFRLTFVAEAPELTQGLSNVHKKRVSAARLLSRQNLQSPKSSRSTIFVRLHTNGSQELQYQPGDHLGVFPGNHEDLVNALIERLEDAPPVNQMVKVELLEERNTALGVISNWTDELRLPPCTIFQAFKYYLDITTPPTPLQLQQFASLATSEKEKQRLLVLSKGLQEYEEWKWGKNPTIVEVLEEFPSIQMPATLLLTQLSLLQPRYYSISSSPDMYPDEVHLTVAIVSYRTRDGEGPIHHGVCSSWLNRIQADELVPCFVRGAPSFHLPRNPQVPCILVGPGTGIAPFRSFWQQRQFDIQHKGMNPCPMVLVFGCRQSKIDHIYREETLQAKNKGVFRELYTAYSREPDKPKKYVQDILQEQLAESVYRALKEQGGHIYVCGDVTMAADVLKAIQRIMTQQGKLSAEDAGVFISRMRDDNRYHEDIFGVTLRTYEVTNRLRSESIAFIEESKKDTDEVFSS
Experiment [3] deals with T1, Nitric oxide synthase 3 (Homo sapiens) (UniProt P29474).
T1 sequence (whole entry): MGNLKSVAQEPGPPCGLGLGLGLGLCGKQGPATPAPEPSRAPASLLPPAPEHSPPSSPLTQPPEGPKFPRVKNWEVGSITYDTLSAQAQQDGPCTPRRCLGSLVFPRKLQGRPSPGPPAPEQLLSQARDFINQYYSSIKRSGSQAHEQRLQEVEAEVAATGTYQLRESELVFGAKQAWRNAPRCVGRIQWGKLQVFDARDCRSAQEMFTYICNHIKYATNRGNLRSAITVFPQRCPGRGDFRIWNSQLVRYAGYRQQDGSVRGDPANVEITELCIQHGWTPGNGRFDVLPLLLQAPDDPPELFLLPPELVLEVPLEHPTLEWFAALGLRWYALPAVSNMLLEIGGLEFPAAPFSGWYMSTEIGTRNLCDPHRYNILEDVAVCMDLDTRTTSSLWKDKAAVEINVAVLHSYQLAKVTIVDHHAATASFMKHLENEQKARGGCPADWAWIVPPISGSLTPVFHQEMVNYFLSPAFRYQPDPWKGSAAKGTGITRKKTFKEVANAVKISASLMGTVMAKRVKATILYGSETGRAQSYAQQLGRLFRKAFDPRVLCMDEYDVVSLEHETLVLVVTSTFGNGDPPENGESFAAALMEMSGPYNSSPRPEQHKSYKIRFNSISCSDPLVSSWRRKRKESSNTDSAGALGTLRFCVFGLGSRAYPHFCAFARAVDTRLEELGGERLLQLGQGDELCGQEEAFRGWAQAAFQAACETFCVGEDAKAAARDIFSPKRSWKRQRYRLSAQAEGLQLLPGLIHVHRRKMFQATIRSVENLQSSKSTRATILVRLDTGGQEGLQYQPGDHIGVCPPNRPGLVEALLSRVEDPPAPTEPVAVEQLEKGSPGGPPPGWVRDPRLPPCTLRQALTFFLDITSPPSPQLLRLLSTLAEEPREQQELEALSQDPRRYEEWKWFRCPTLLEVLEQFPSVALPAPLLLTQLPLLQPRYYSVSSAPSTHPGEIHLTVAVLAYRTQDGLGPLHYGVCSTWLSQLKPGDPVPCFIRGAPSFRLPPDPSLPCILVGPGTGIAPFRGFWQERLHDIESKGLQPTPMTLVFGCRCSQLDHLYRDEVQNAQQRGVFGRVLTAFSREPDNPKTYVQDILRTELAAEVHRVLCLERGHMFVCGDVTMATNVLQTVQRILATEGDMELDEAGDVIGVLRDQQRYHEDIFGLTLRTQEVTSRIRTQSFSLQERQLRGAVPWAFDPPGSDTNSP
As to the kind of experiment: Inhibition of eNOS.

Chain of Nitric oxide synthase, inducible (P35228 whole entry): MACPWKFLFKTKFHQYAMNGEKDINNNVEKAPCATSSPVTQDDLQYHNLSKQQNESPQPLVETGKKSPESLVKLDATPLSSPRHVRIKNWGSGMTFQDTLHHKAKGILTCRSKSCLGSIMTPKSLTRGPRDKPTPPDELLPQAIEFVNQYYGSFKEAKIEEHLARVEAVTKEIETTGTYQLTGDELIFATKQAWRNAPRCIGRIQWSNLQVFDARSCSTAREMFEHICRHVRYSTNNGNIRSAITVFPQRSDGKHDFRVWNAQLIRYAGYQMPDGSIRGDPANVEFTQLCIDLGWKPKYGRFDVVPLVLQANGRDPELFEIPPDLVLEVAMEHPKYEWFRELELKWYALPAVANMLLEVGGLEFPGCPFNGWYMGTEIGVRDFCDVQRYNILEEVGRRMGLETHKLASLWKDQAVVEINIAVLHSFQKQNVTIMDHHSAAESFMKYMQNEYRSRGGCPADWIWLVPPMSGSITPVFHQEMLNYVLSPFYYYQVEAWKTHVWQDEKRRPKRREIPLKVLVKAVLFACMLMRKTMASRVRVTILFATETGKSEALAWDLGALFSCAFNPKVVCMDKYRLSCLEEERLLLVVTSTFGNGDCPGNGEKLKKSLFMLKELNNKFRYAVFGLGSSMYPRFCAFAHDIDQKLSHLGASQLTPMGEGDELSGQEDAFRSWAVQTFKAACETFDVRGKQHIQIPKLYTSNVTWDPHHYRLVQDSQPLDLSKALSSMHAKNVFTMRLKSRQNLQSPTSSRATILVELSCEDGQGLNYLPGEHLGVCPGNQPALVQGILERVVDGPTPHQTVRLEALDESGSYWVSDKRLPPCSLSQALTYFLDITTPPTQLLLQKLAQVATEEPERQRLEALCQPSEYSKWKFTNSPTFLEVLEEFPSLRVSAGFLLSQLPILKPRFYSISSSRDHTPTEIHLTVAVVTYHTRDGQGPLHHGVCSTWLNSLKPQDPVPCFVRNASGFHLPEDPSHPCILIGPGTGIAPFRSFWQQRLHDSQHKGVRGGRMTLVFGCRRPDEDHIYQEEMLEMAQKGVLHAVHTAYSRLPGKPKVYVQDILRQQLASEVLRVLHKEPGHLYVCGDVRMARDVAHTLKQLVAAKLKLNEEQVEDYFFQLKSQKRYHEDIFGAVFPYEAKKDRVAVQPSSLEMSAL

Regarding `Cc1c(F)c(Oc2ccc(-n3ccnc3)cc2)nc(Oc2ccc3c(c2)OCO3)c1F`, the IC50 in experiment [1] was determined as 450 nM.
Still for that read-out and setting: next, `c1cn(-c2ccc(Oc3ccnc(Oc4ccc5c(c4)OCO5)n3)cc2)cn1`: 74 nM.
`c1cn(-c2ccc(Oc3nccc(Oc4ccc5c(c4)OCO5)n3)cc2)cn1`: the IC50 in experiment [1] is 55 nM. Moreover, the outcome in experiment [2] and in experiment [3] was inactive.
In experiment [1], `c1cn(-c2ccc(Oc3cc(Oc4ccc5c(c4)OCO5)ncn3)cc2)cn1` showed an IC50 of more than 10000 nM.
For `Cc1cc(Oc2ccc3c(c2)OCO3)nc(Oc2ccc(-n3ccnc3)cc2Cl)n1`, the 50% inhibitory concentration (IC50) in experiment [1] was found to be 19 nM.
On the same count and under the same terms, then `c1cc(Oc2ccc(-n3ccnc3)cc2)nc(Oc2ccc3c(c2)OCO3)c1`, with 78 nM; and `Cc1cnc(Oc2ccc(-n3ccnc3)cc2)nc1Oc1ccc2c(c1)OCO2`, with 130 nM.
Same read-out and setting: next, `Cc1cc(Oc2ccc3c(c2)OCO3)nc(Oc2ccc(-n3ccnc3)cc2F)n1`: 92 nM.
On the same count and under the same terms, then `CN(C)CCCN(C)c1cc(Oc2ccc(-n3ccnc3)cc2)nc(Cc2ccc3c(c2)OCO3)n1`, with 220 nM.
`Cc1cc(Oc2ccc3c(c2)OCO3)nc(Oc2ccc(-n3ccnc3)cc2C(F)(F)F)n1` gave a half-maximal inhibitory concentration (IC50) in experiment [1] of 220 nM.
Compound `Cc1cc(Oc2ccc3c(c2)OCO3)nc(Oc2ccc(-n3ccnc3)cc2)n1` had an IC50 in experiment [1] of 90 nM.
`Clc1cc(Oc2ccc(-n3ccnc3)cc2)nc(Cc2ccc3c(c2)OCO3)n1`: in experiment [1], the concentration for half-maximal inhibition (IC50) is more than 10000 nM.
Consider `c1cn(-c2ccc(Oc3cc(N4CCOCC4)nc(Cc4ccc5c(c4)OCO5)n3)cc2)cn1`, for which inhibition in experiment [1] was half-maximal at 830 nM (IC50).
